{"source": "patent US20240287172A1", "about": "“PROTEIN BINDERS TO IRHOM2 EPITOPES” (SCIRHOM GMBH, priority 2019, published 2024)", "test_system": "PMA-induced release of endogenous IL-6R from human U-937 cells", "experiment": "ELISA-based IL-6R release assay, PMA-induced, U-937 cells", "format": "cell-based", "conditions": "U-937, 1 h, PMA 62.5 ng/ml, Batimastat at 10 μM", "experimental": "In brief, on day 1, Nunc black MaxiSorp® 96-well plates (Thermo Fisher Scientific, USA) were coated overnight with 100 μl per well of mouse anti-human IL-6R capture antibody (provided as part of the DuoSet ELISA kit) at 2 μg/ml TBS at 4° C. On day 2, the capture antibody solution was removed and MaxiSorp® plates were blocked with 300 μl per well of TBS, 1% BSA at room temperature for 1-2 hours. Meanwhile, 80,000 U-937 (European Collection of Authenticated Cell Cultures, UK) cells in 80 μl of normal growth medium were seeded in each well of Greiner CELLSTAR V-bottom 96-well plates (Thermo Fisher Scientific, USA) and pre-incubated with 20 μl per well of standard growth medium supplemented with Batimastat (BB94, Abcam, UK) at 50 μM as positive control (for a final concentration of 10 μM in the resulting 100 μl sample volume), mouse IgG antibody (Thermo Fisher Scientific, USA) at 5 μg/ml as isotype control (for a final […]) at 37° C., 5% CO2 for 30 minutes. In case of stimulation controls, 20 μl of standard growth medium without test articles were added. […] Using an infinite M1000 (Tecan Group, Switzerland) microplate reader, the fluorescence of each well was collected at an excitation wavelength of 435 nm and an emission wavelength of 555 nm. […]", "data": [{"smiles": "CNC(=O)[C@H](Cc1ccccc1)NC(=O)[C@H](CC(C)C)[C@H](CSc1cccs1)C(=O)NO", "note": "[Batimastat]", "values": [{"measurement": "inhibition at 10 µM", "setting": "murine (m) and chimeric (ch) antibodies and IgG at 3 μg/ml", "result": 91.6, "unit": "%"}, {"measurement": "inhibition at 10 µM", "setting": "recombinant murine antibodies and IgG at 1 μg/ml", "result": 86.6, "unit": "%"}]}]}
